Laboratory results from patent publication US20230049350A1, “COMPOUNDS FOR TREATING BRAIN CANCER” (Purdue Pharmaceutical Products L.P., priority 2014, published 2023).
pIC50: −log10 of the molar value. Like-named read-outs stand apart in the source and are kept apart here.

Tests used:
LN228 = test: GBM cell line viability IC50, LN228/LN229; type: cell-based; settings: Homo sapiens, LN-229
Protocol: (§1) In vitro experiments were devised in which a series of GBM cell lines representative for MGMT negative and MGMT positive tumour cells were used.
(§2) Compounds: 1-100 µM EDO-S101, 1-50 µM temozolomide (TMZ), 1-50 µM temozolomide + 500 nM vorinostat, 1-40 µM bendamustine, 1-40 µM bendamustine and 500 nM vorinostat.
(§3) Twelve glioblastoma cell lines representing grade III and IV gliomas and with different expression of MGMT, drug and radiotherapy sensitivity and five patient derived glioblastoma stem, cells were used (see above). Four patient-derived glioblastoma stem cells, kindly provided from J. Gregory Cairncross, and Samuel Weiss at the Hotchkiss Brain Institute, Faculty of Medicine, University of Calgary, Calgary, Alberta, Canada and one luciferase transfected, PTC#8, from Prof Angelo Vescovi, University la Bicocca, Milan were cultured in defined culture serum free medium (SFM) and in non-adherent spheres culture. Cells were resuspended in DMEM/F12 media without serum supplemented with 20 ng/ml epidermal growth factor (Sigma-Aldrich), 20 ng/ml basic fibroblast growth factor (Sigma-Aldrich), B-27 supplement 1X (Gibco, Life Technologies), and antibiotics. Treatment with EDO-S101 was added straight after plating 3×10^3 cells in 96-well plates with the stem cells media. Spheres were counted 5 days after treatment under an inverted microscope at ×4 magnification. A sphere was counted if it had at least 15 cells.
(§4) Cells were seeded at a density of 2 × 10^4 cells/ml in 24 well plates. Cells were left to attach and grow in 5% FCS DMEM for 24 h. […] Cells trypsinized and resuspended in 1.0 ml of saline were counted using the NucleoCounterTM NC-100 (automated cell counter systems, Chemotec, Cydevang, DK) in order to evaluate cell viability. […] IC50 values were calculated by the GraFit method (Erithacus Software Limited, Staines, UK). Cell viability was measured with the 3-(4,5 dimethylthiazol-2-yl)-2,5-diphenyl tetrazolium bromide (MTT; Sigma-Aldrich) assay.
(§5) IC50 and IC20 values for all twelve cell lines against bendamustine and vorinostat were also determined as described above. […]

U251 = test: s.c. xenograft model of GBM, U251, time to progression; type: in vivo, mice; settings: for time to progression of the tumours: U251G xenograft
Protocol: Next, adopting the procedure of Example 3, s.c. xenograft models of GBMs in mice were prepared using the GBM cell lines U251 and U87.
The U251 mice prepared as above were subjected either subjected to radiotherapy (2 Gy for 5 consecutive days), treatment with EDO-S101 (60 mg/kg intravenously at days 1, 8 and 15 of the treatment cycle) or control only. Before any irradiation mice were anesthetized with a mixture of ketamine (25 mg/ml)/xylazine (5 mg/ml). Anesthetized tumor-bearing mice received a focal irradiation at the dose of 2 Gy for 5 consecutive days. Irradiation was delivered using an X-ray linear accelerator at a dose rate of 200 cGy/min at room temperature. All mice were shielded with a specially designed lead apparatus to allow irradiation to the right hind limb. Mice were kept under these conditions until all irradiation finished.
A study was made of the progression of the GBM according to the procedure of Example 3.
In a follow up experiment, U251 mice prepared in the same manner were either subjected to the current gold standard treatment of radiotherapy and temozolomide (2 Gy for 5 consecutive days and 16 mg/kg for 5 consecutive days, po), treatment with EDO-S101 (60 mg/kg, intravenously at days 1, 8 and 15 of the treatment cycle), treatment with EDO-S101 and radiotherapy (2 Gy for 5 consecutive days and 60 mg/kg, intravenously at days 1, 8 and 15 of the treatment cycle) or control.

U87MG = test: GBM cell line viability IC50, U87; type: cell-based; settings: Homo sapiens, U-87 MG
Protocol: as §1, §2, §3, §4, §5

SNB19 = test: GBM cell line viability IC50, SNB19; type: cell-based; settings: Homo sapiens, SNB-19
Protocol: as §1, §2, §3, §4, §5

LN18 = test: GBM cell line viability IC50, LN18; type: cell-based; settings: Homo sapiens, LN-18
Protocol: as §1, §2, §3, §4, §5

U138MG = test: GBM cell line viability IC50, U138; type: cell-based; settings: Homo sapiens, U138-MG
Protocol: as §1, §2, §3, §4, §5

U118MG = test: GBM cell line viability IC50, U118; type: cell-based; settings: Homo sapiens, U-118-MG
Protocol: as §1, §2, §3, §4, §5

SW1783 = test: GBM cell line viability IC50, SW1783; type: cell-based; settings: Homo sapiens
Protocol: as §1, §2, §3, §4, §5

U373MG (Uppsala) = test: GBM cell line viability IC50, U373; type: cell-based; settings: Homo sapiens, U373 MG
Protocol: as §1, §2, §3, §4, §5

A172 = test: GBM cell line viability IC50, A172; type: cell-based; settings: Homo sapiens, A 172
Protocol: as §1, §2, §3, §4, §5

Mz-54 = test: GBM cell line viability IC50, Mz54; type: cell-based
Protocol: as §1, §2, §3, §4, §5

OCI-LY10B lymphoma cells = test: Murine model for primary CNS lymphoma, intracerebral OCI-LY10B; type: in vivo, mice; settings: for tumour growth: iv days +4, +11, +18; for median survival: iv days +4, +11, +18, EDO-S101 60 mg/kg, bendamustine 50 mg/kg, controls 48 days
Protocol: The procedure of Example 3 was repeated, except the murine models were created with 1×10^5 luciferase-transfected OCI-LY10B lymphoma cells to create a model of primary CNS lymphoma. EDO-S101 (60 mg/kg body weight), bendamustine (50 mg/kg body weight) and control was administered intravenously via a tail vein to separate groups of the test mice on days +4, +11 and +18 post intracerebral implantation of the OCI-LY10B lymphoma cells. […] EDO-S101 therefore appears to be a promising treatment for primary CNS lymphoma.

[1] = test system: MB-468 breast cancer cells; test: Murine model for metastatic breast cancer of the brain, intracerebral MB-468; type: in vivo, mice; settings: MB-468 intracerebral; for median survival: single iv dose day +4, EDO-S101 60 mg/kg, bendamustine 50 mg/kg, controls 55 days
Protocol: The procedure of Example 3 was repeated, except the murine models were created with 1×10^5 luciferase-transfected MB-468 breast cancer cells to create a […]. EDO-S101 (60 mg/kg body weight), bendamustine (50 mg/kg body weight) and control was administered intravenously via a tail vein to separate groups of the test mice in a single dose on day +4 post intracerebral implantation of the MB-468 breast cancer cells. […] EDO-S101 therefore appears to be a particularly promising treatment for metastatic brain cancer.

[2] = drug in combination with radiotherapy 2 Gy x 5 days, EDO-S101 60 mg/kg iv days 1, 8, 15, temozolomide 16 mg/kg po x 5 days

| SMILES | time to progression of the tumours (U251; [2]) | pIC50 (LN228) | tumour growth (OCI-LY10B lymphoma cells) | median survival (OCI-LY10B lymphoma cells) [days] | pIC50 (U87MG) | pIC50 (SNB19) | pIC50 (LN18) | pIC50 (U138MG) | pIC50 (U118MG) | pIC50 (SW1783; SW1783) | pIC50 (U373MG (Uppsala)) | pIC50 (A172) | median survival [1] [days] | pIC50 (Mz-54) | also measured |
| --- | --- | --- | --- | --- | --- | --- | --- | --- | --- | --- | --- | --- | --- | --- | --- |
| Cn1nnc2c(C(N)=O)ncn2c1=O [temozolomide] | 42 days |  |  |  |  |  |  |  |  |  |  |  |  |  | pIC50 (LN228; LN228, MGMT neg., no unit in Table 2, read-out: IC50): < 4.00; pIC50 (U87MG; MGMT negative U87G glioblastoma cell line, read-out: IC50): 4.70; pIC50 (SNB19; SNB19, MGMT neg., no unit in Table 2, read-out: IC50): < 4.00; pIC50 (LN18; LN18, MGMT pos., no unit in Table 2, read-out: IC50): < 4.00; pIC50 (U138MG; U138MG, MGMT pos., no unit in Table 2, read-out: IC50): < 4.00; pIC50 (U118MG; U118MG, MGMT pos., no unit in Table 2, read-out: IC50): < 4.00; pIC50 (SW1783; SW1783, MGMT neg., no unit in Table 2, read-out: IC50): 4.10; pIC50 (U373MG (Uppsala); U373MG (Uppsala), MGMT neg., no unit in Table 2, read-out: IC50): 4.10; pIC50 (A172; A172, MGMT neg., no unit in Table 2, read-out: IC50): ~4.00; pIC50 (Mz-54; Mz-54, MGMT pos., no unit in Table 2, read-out: IC50): < 4.00 |
| Cn1c(CCCC(=O)O)nc2cc(N(CCCl)CCCl)ccc21 [bendamustine] |  | 4.46 | significantly suppressed tumour growth | 54 | 4.30 | 4.49 | 4.60 | 4.52 | 4.46 | 4.42 | 4.46 | 4.26 | 62 | 4.22 |  |
| Cn1c(CCCCCCC(=O)NO)nc2cc(N(CCCl)CCCl)ccc21 [EDO-S101] | over 50 days | 5.81 | significantly suppressed tumour growth | 62 | 5.87 | 5.66 | 5.73 | 5.37 | 5.18 | 5.08 | 5.65 | 5.19 | 71 | 4.90 | time to progression of the tumours (U251; drug alone, 60 mg/kg iv days 1, 8, 15, control approximately 17-18 days): over 50 days; time to progression versus radiotherapy-treated tumours (U251; U251 s.c. xenograft, drug alone, FIG. 11): considerably longer; time to progression versus EDO-S101 alone and versus radiotherapy and temozolomide (U251; U251 s.c. xenograft, drug plus radiotherapy, FIG. 12): significantly longer; tumour growth ([1]; single iv dose 60 mg/kg day +4): suppression of tumour growth |
